In patent publication US9611295B2, “Treatment of IL-17 mediated disease by blocking SEFIR-SEFIR interactions” (THE CLEVELAND CLINIC FOUNDATION, priority 2011, dated 2017):

Experiments:
[1] = tested on: IL-25-mediated expression of Il13; assay: IL-25-mediated Il13 mRNA expression in MEFs, real-time RT-PCR; assay type: cell-based, mouse; details: peptides 200 μM for 24 hours, then IL-25 for 3 hours
Description: FIG. 4 provides data showing that a cell-permeable CC′ loop decoy peptide disrupts the interaction between Act1 and IL-17RA and inhibits IL-17R and IL-25R signaling. FIG. 4A provides sequences of Antennapedia homeodomain (Antp) (SEQ ID NO: 11)and decoy peptides (SEQ ID NOS 23-25 and 17, respectively, in order of appearance) with the Antp sequence underlined. FIG. 4B provides flow cytometry results based on experiments in which MEFs expressing IL-17RB were incubated for 2 or 24 hours with the indicated FITC-tagged peptides (200 μM) and were then analyzed by flow cytometry. […] The percentages of FITC-positive cells in the treated samples are shown. […] FIG. 4D provides Western blot results of experiments in which MEFs expressing IL-17RB were incubated with the indicated peptides (200 μM) for 24 hours after which they were treated with IL-17 or IL-25 and then analyzed by Western blotting with the indicated antibodies. […] The abundances of Cxcl1 and Il13 mRNAs were then measured by real-time RT-PCR. […]
Decoy peptides are based on surface-exposed regions of the primary sequence of a protein to mimic a putative interaction interface. […] These decoy peptides were also tagged at their C-termini with fluorescein isothiocyanate (FITC) to enable their cell-penetrating efficiency to be evaluated by flow cytometric sanalysis. […]

[2] = tested on: IL-25-induced pulmonary inflammation; assay: IL-25-induced pulmonary inflammation in BALB/c mice; assay type: in vivo, mouse
Description: FIG. 5 provides bar graph and staining data showing that a cell-permeable CC′ loop decoy peptide inhibits IL-17- and IL-25-induced pulmonary inflammation. Wild-type (WT) female BALB/c mice (n=4 mice per group) were pretreated with DMSO, scrambled peptide, or the CC′ loop decoy peptide for 4 hours, after which they were administered saline, IL-17, or IL-25 intranasally. Mice were sacrificed and analyzed 16 hours after injection with IL-17 or 4 days after injection with IL-25. […] All experiments were performed three times. *P<0.05.
It has been shown that Act1 plays an essential role in IL-17- and IL-25-mediated pulmonary inflammation. Thus, the inventors examined whether the Act1 SEFIR domain CC′ loop decoy peptide ameliorated IL-17- and IL-25-induced airway inflammation in vivo. BALB/c mice were pretreated with scrambled peptide or with the Act1 SEFIR domain CC′ loop decoy peptide for 4 hours, after which we injected the mice intranasally with IL-17 or IL-25. […] Consistently, IL-17-induced lung and airway recruitment of granulocytes was reduced in mice pretreated with the CC′ loop decoy peptide compared to that in mice pretreated with the scrambled peptide (FIG. 5C). The lower grade of pulmonary inflammation in the mice treated with the CC′ loop decoy peptide correlated with the decreased IL-17-dependent expression of genes encoding MCP-1 and GM-CSF in the lung tissues (FIG. 5D). […] IL-25-induced lung and airway recruitment of granulocytes, predominantly eosinophils, as well as mucin production, as determined by Periodic acid-Schiff (PAS) staining, were reduced in mice pretreated with the CC′ loop decoy peptide compared to that in mice pretreated with the scrambled peptide (FIG. 5G). The decreased pulmonary inflammation in […] correlated with decreased expression of genes encoding the TH2-type cytokines IL-5 and IL-13 in the lungs (FIG. 5H).
Intranasal injection of mice with IL-17 and IL-25: Wild-type BALB/c female mice were pretreated with dimethyl sulfoxide (DMSO, the solvent for peptides), scrambled peptide, or the CC′ loop decoy peptide for 4 hours, after which they underwent intranasal administration of saline, IL-17 (4 μg/mouse), or IL-25 (4 μg/mouse). For IL-25-treated mice, decoy peptides were administrated daily through intranasal injection after pretreatment. Mice were anesthetized with isoflurane and sacrificed. BAL fluid was collected 16 hours after injection with IL-17 or 4 days after injection with IL-25. A total of 0.7 ml of HL-1 medium (BioWhittaker®) was used to obtain BAL fluid through trachea with a blunt needle and a 1-ml syringe. Cytospin slide preparations were obtained with a Shandon CytoSpin III Cytocentrifuge (Shandon/Thermo Scientific). Differential leukocyte counts were obtained on cytospin slide preparations after incubation with Diff Quik Giemsa stain. Cytokines in the BAL were analyzed by MultipleX plate (Invitrogen®). H&E and PAS staining were performed on lung tissues after fixation in 10% neutral-buffered formalin and paraffin embedding to detect pulmonary inflammation and for assessment of goblet cell metaplasia and mucin accumulation in airway epithelial cells.

Sequence: DRQIKIWFQNRRMKWKKLDEDEHGLHTKY [CC′ loop decoy peptide]
- inhibition of IL-25-mediated expression of Il13 [1]: ~60 % inhibition
- dose dependence of inhibition of IL-25-induced pulmonary inflammation ([2]; data not shown): dose-dependent manner
- IL-5 in BAL ([2]; intranasal IL-25, 4 days): substantially attenuated
- IL-13 in BAL ([2]; intranasal IL-25, 4 days): substantially attenuated
- IL-25-induced eosinophilia (eosinophils in BAL) ([2]; intranasal IL-25, 4 days, vs scrambled peptide, listed as Act1 SEFIR domain CC′ loop decoy peptide): substantially attenuated
- IL-25-induced eosinophilia (eosinophils in BAL) ([2]; intranasal IL-25, 4 days, vs scrambled peptide, listed as CC′ decoy peptide): reduced accumulation
- IL-25-induced lung and airway recruitment of granulocytes, predominantly eosinophils (H&E) ([2]; vs scrambled peptide): reduced
- mucin production (PAS staining) ([2]; vs scrambled peptide): reduced
